Data taken from patent US11053213B2, “Pharmaceutical compounds” (ALMAC DISCOVERY LIMITED, priority 2016, dated 2021).

Molecular target: USP19 (Homo sapiens (Human), UniProt O94966)
Assay: USP19 activity assay (fluorescence polarisation, Ubiquitin-Lys-TAMRA substrate)
Assay type: biochemical
Conditions: full-length USP19 2.5 nM, 30 min pre-incubation, Ub substrate 500 nM; average of at least two duplicate experiments

USP19, sequence (O94966 whole entry): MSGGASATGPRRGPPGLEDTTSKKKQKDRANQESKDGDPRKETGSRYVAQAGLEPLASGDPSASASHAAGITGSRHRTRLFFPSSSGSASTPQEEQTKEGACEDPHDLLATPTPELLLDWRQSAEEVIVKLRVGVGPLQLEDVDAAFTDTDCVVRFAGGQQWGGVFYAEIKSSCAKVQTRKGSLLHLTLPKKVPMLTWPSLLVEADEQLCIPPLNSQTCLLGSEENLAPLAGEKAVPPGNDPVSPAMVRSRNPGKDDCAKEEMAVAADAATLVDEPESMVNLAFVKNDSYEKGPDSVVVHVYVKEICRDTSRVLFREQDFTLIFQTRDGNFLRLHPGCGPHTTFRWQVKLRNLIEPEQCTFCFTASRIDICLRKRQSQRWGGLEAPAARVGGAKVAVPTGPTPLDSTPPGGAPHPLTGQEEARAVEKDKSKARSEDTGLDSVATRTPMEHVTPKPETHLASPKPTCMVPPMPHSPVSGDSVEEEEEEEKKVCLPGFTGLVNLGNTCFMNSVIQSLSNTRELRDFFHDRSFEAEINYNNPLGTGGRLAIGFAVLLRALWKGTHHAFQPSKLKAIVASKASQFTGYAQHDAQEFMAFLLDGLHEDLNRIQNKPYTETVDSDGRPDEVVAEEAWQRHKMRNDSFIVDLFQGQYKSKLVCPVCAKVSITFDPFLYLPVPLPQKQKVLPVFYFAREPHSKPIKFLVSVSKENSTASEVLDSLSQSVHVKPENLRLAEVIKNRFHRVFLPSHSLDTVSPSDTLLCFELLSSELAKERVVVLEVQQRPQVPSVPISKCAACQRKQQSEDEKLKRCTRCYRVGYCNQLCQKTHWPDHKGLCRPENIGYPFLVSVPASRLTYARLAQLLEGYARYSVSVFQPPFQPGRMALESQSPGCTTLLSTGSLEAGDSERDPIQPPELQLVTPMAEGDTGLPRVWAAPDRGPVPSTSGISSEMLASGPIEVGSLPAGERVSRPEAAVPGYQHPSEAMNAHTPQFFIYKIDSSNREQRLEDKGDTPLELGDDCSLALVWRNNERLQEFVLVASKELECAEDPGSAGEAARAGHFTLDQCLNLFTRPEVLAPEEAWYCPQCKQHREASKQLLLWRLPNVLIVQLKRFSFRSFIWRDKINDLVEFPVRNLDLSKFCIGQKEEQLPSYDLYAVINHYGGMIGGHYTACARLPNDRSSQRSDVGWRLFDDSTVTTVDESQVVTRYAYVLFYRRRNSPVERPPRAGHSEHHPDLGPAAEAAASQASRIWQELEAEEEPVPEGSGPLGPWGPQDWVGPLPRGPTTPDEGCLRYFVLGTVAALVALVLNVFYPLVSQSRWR

SMILES | IC50 [µM]
C[C@H](CC(=O)N1CCC(O)(Cn2cc(C(=O)NCC3CC3)c(-c3ccccc3)cc2=O)CC1)c1ccccc1 [Example 104, (R)—N-(Cyclopropylmethyl)-1-((4-hydroxy-1-(3-phenylbutanoyl)piperidin-4-yl)methyl)-6-oxo-4-phenyl-1,6-dihydropyridine-3-carboxamide] | 5 to 50
CC(C)N(C)C(=O)c1cn(C[C@]2(O)CCN(C(=O)[C@H](C)CC3CCCCC3)CC2(C)C)c(=O)cc1-c1ccccc1 [Example 120, 1-(((S)-1-((R)-3-Cyclohexyl-2-methylpropanoyl)-4-hydroxy-3,3-dimethylpiperidin-4-yl)methyl)-N-isopropyl-N-methyl-6-oxo-4-phenyl-1,6-dihydropyridine-3-carboxamide] | < 0.5
CC(C)(CC1CCC1)C(=O)N1CCC(O)(Cn2cnc(-c3ccccc3F)cc2=O)CC1 [Example 59, 3-((1-(3-Cyclobutyl-2,2-dimethylpropanoyl)-4-hydroxypiperidin-4-yl)methyl)-6-(2-fluorophenyl)pyrimidin-4(3H)-one] | 5 to 50
C[C@H](CC1CCCCC1)C(=O)N1CC[C@](O)(Cn2cc(C(=O)N(C)C)c(-c3ccccc3)cc2=O)C(C)(C)C1 [Example 122, 1-(((R)-1-((R)-3-Cyclohexyl-2-methylpropanoyl)-4-hydroxy-3,3-dimethylpiperidin-4-yl)methyl)-N,N-dimethyl-6-oxo-4-phenyl-1,6-dihydropyridine-3-carboxamide] | 50 to 250
CC(C)(CC(=O)N1CCC(O)(Cn2cnc(-c3ccccc3F)cc2=O)C(C)(C)C1)c1ccccc1 (racemic) [Example 70, (R,S)-6-(2-Fluorophenyl)-3-((4-hydroxy-3,3-dimethyl-1-(3-methyl-3-phenylbutanoyl)piperidin-4-yl)methyl)pyrimidin-4(3H)-one] | 5 to 50
CC(Cc1ccccc1)C(=O)N1CCC(O)(Cn2cnc(-c3ccccc3F)cc2=O)CC1 (racemic) [Example 5, (R,S)-6-(2-Fluorophenyl)-3-((4-hydroxy-1-(2-methyl-3-phenylpropanoyl)piperidin-4-yl)methyl)pyrimidin-4(3H)-one] | 5 to 50
C[C@H](CC(=O)N1CCC(O)(Cn2cc(-c3ccnn3C)c(-c3ccccc3)cc2=O)CC1)c1ccccc1 [Example 9, (R)-1-((4-Hydroxy-1-(3-phenylbutanoyl)piperidin-4-yl)methyl)-5-(1-methyl-1H-pyrazol-5-yl)-4-phenylpyridin-2(1H)-one] | 5 to 50
CC1(C(=O)N2CCC(O)(Cn3cnc(-c4ccccc4F)cc3=O)CC2)CCCCC1 [Example 42, 6-(2-Fluorophenyl)-3-((4-hydroxy-1-(1-methylcyclohexanecarbonyl)piperidin-4-yl)methyl)pyrimidin-4(3H)-one] | 5 to 50
CCN(CC)C(=O)c1cn(CC2(O)CCN(C(=O)C[C@@H](C)c3ccccc3)CC2)c(=O)cc1-c1ccccc1 [Example 75, (R)—N,N-Diethyl-1-((4-hydroxy-1-(3-phenylbutanoyl)piperidin-4-yl)methyl)-6-oxo-4-phenyl-1,6-dihydropyridine-3-carboxamide] | 0.5 to 5
Cc1nc(-c2ccccc2)cc(=O)n1CC1(O)CCN(C(=O)CCc2ccccc2)CC1 [Example 34, 3-((4-Hydroxy-1-(3-phenylpropanoyl)piperidin-4-yl)methyl)-2-methyl-6-phenylpyrimidin-4(3H)-one] | 50 to 250
C[C@H](CC(=O)N1CCC(O)(Cn2cc(-c3ccccc3)c(Cl)cc2=O)CC1)c1ccccc1 [Example 10, (R)-4-Chloro-1-((4-hydroxy-1 (3-phenylbutanoyl)piperidin-4-yl)methyl)-5-phenylpyridin-2(1H)-one] | 50 to 250
C[C@H](CC1CCCCC1)C(=O)N1CCC(O)(Cn2cnc(-c3ccccc3)cc2=O)C(C)(C)C1 (mixture of isomers) [Example 50, 3-(((R)-1-((R)-3-Cyclohexyl-2-methylpropanoyl)-4-hydroxy-3,3-dimethylpiperidin-4-yl)methyl)-6-phenylpyrimidin-4(3H)-one and 3-(((S)-1-((R)-3-Cyclohexyl-2-methylpropanoyl)-4-hydroxy-3,3-dimethylpiperidin-4-yl)methyl)-6-phenylpyrimidin-4(3H)-one] | < 0.5
C[C@H](CC1CCCCC1)C(=O)N1C[C@H]2CC[C@@H](C1)C2(O)Cn1cnc(-c2ccccc2F)cc1=O (stereo partly drawn) [Example 31, 3-(((1R,5S)-3-((R)-3-Cyclohexyl-2-methylpropanoyl)-8-hydroxy-3-azabicyclo[3.2.1]octan-8-yl)methyl)-6-(2-fluorophenyl)pyrimidin-4(3H)-one] | 0.5 to 5

Other lines, results leading:

IC50 [µM] | SMILES
< 0.5 | CN(C)C(=O)c1cn(C[C@]2(O)CCN(C(=O)[C@H](CO)CC3CCC3)CC2(C)C)c(=O)cc1-c1ccccc1 [Example 166, 1-(((S)-1-((S)-3-Cyclobutyl-2-(hydroxymethyl)propanoyl)-4-hydroxy-3,3-dimethylpiperidin-4-yl)methyl)-N,N-dimethyl-6-oxo-4-phenyl-1,6-dihydropyridine-3-carboxamide]
< 0.5 | C[C@H](CC1CCCCC1)C(=O)N1CCC(O)(Cn2cc(C(=O)N(C)C)c(Cl)cc2=O)C2(CCCC2)C1 (stereo partly drawn) [Example 144, 4-chloro-1-((7-((R)-3-cyclohexyl-2-methylpropanoyl)-10-hydroxy-7-azaspiro[4.5]decan-10-yl)methyl)-N,N-dimethyl-6-oxo-1,6-dihydropyridine-3-carboxamide]
< 0.5 | C[C@H](CC1CCCCC1)C(=O)N1CCC(O)(Cn2cnc(-c3ccccc3CN)cc2=O)C(C)(C)C1 (stereo partly drawn) [Example 141, 6-(2-(Aminomethyl)phenyl)-3-((1-((R)-3-cyclohexyl-2-methylpropanoyl)-4-hydroxy-3,3-dimethylpiperidin-4-yl)methyl)pyrimidin-4(3H)-one]
0.5 to 5 | CN(C)C(=O)c1cn(CC2(O)CCN(C(=O)[C@H](COCc3ccccc3)CC3CCCCC3)CC2(C)C)c(=O)cc1-c1ccccc1 (stereo partly drawn) [Example 146, 1-((1-((S)-3-(Benzyloxy)-2-(cyclohexylmethyl)propanoyl)-4-hydroxy-3,3-dimethylpiperidin-4-yl)methyl)-N,N-dimethyl-6-oxo-4-phenyl-1,6-dihydropyridine-3-carboxamide]
5 to 50 | CN(C)C(=O)c1cn(CC2(O)CCN(C(=O)C3(C)CCCCC3)CC23CCCC3)c(=O)cc1-c1ccccc1 (stereo not drawn) [Example 176, 1-((10-Hydroxy-7-(1-methylcyclohexane-1-carbonyl)-7-azaspiro[4.5]decan-10-yl)methyl)-N,N-dimethyl-6-oxo-4-phenyl-1,6-dihydropyridine-3-carboxamide]
5 to 50 | CN(C)C(=O)c1cn(CC2(O)CCN(C(=O)C(C)(C)CC(F)F)CC23CCCC3)c(=O)cc1-c1ccccc1 (stereo not drawn) [Example 244, 1-((7-(4,4-Difluoro-2,2-dimethylbutanoyl)-10-hydroxy-7-azaspiro[4.5]decan-10-yl)methyl)-N,N-dimethyl-6-oxo-4-phenyl-1,6-dihydropyridine-3-carboxamide]
0.5 to 5 | C[C@H](CC1CCCCC1)C(=O)N1CC[C@@](O)(Cn2cc(C(=O)N3CCNCC3)c(C3CC3)cc2=O)C(C)(C)C1 [Example 221, 1-(((S)-1-((R)-3-Cyclohexyl-2-methylpropanoyl)-4-hydroxy-3,3-dimethylpiperidin-4-yl)methyl)-4-cyclopropyl-5-(piperazine-1-carbonyl)pyridin-2(1H)-one]
< 0.5 | C[C@H](CC1CCCCC1)C(=O)N1CC[C@@](O)(Cn2cc(C(=O)N3CCN(C)CC3)c(-c3ccccc3)cc2=O)C2(CCCC2)C1 [Example 240, 1-(((S)-7-((R)-3-Cyclohexyl-2-methylpropanoyl)-10-hydroxy-7-azaspiro[4.5]decan-10-yl)methyl)-5-(4-methylpiperazine-1-carbonyl)-4-phenylpyridin-2(1H)-one]
5 to 50 | C[C@H](CC1CCCCC1)C(=O)N1CCC(O)(Cn2cc(-c3ccccn3)c(-c3ccccc3F)cc2=O)C(C)(C)C1 (stereo partly drawn) [Example 154, 1′-((1-((R)-3-Cyclohexyl-2-methylpropanoyl)-4-hydroxy-3,3-dimethylpiperidin-4-yl)methyl)-4′-(2-fluorophenyl)-[2,3′-bipyridin]-6′(1′H)-one]
< 0.5 | C[C@H](CC1CCCCC1)C(=O)N1CCC(O)(Cn2cc(C(=O)N(C)C)c(-c3cccc(CO)c3)cc2=O)C2(CCCC2)C1 (stereo partly drawn) [Example 156, 1-((7-((R)-3-Cyclohexyl-2-methylpropanoyl)-10-hydroxy-7-azaspiro[4.5]decan-10-yl)methyl)-4-(3-(hydroxymethyl)phenyl)-N,N-dimethyl-6-oxo-1,6-dihydropyridine-3-carboxamide]
5 to 50 | CC(OC1CCCCC1)C(=O)N1CCC(O)(Cn2cc(C(=O)N(C)C)c(-c3ccccc3)cc2=O)C2(CCCC2)C1 (stereo not drawn) [Example 199, 1-((7-(2-(Cyclohexyloxy)propanoyl)-10-hydroxy-7-azaspiro[4.5]decan-10-yl)methyl)-N,N-dimethyl-6-oxo-4-phenyl-1,6-dihydropyridine-3-carboxamide]
< 0.5 | CN(C)C(=O)c1cn(CC2(O)CCN(C(=O)[C@@H]3C[C@@H]3c3ccccc3)CC23CCCC3)c(=O)cc1-c1ccccc1 (stereo partly drawn) [Example 174, 1-((10-Hydroxy-7-((1R,2S)-2-phenylcyclopropane-1-carbonyl)-7-azaspiro[4.5]decan-10-yl)methyl)-N,N-dimethyl-6-oxo-4-phenyl-1,6-dihydropyridine-3-carboxamide]
50 to 250 | CC(CC(=O)N1CCC(O)(Cn2cc(C(=O)N(C)C)c(-c3ccccc3)cc2=O)C2(CCCC2)C1)C(F)(F)F (stereo not drawn) [Example 171, 1-((10-Hydroxy-7-(4,4,4-trifluoro-3-methylbutanoyl)-7-azaspiro[4.5]decan-10-yl)methyl)-N,N-dimethyl-6-oxo-4-phenyl-1,6-dihydropyridine-3-carboxamide]
0.5 to 5 | C[C@H](CC1CCCCC1)C(=O)N1CCC(O)(Cn2cnc(-c3ccnn3C)cc2=O)C(C)(C)C1 (stereo partly drawn) [Example 131, 3-((1-((R)-3-Cyclohexyl-2-methylpropanoyl)-4-hydroxy-3,3-dimethylpiperidin-4-yl)methyl)-6-(1-methyl-1H-pyrazol-5-yl)pyrimidin-4(3H)-one]
